Assays:
Format in all cases: biochemical
[1] = target: T1, Caspase-3 (Homo sapiens, UniProt P42574); test: Kinetic compound screening, progress curve method, caspase-3; details: for Ki(app) Caspase-3: Table III, Ki(app) = Kass or Kobs/I, 5 nM active caspase-3; for Caspase-3 Ki(app): Table IV
T1 sequence (P42574 29-175 limits assumed): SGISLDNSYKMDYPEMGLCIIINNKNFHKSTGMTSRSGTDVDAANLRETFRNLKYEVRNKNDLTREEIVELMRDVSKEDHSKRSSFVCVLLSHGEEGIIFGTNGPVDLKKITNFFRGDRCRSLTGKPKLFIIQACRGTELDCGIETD
T1 sequence (P42574 176-277 limits assumed): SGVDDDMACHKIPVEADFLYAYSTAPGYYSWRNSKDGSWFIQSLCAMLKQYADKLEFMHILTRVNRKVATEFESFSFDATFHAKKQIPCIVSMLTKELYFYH
Source text: (§1) Table III below presents Ki(app) values for select AB compounds. Ki(app) values (also called Kass or Kobs/I) represent the speed of inhibitor binding to a target enzyme. Units are [M^−1s^−1]. NI indicates no inhibition at concentrations tested. Parent compounds AB09, ABo8, and AB07 that include the optimal substrate specificity sequences for caspases-3, […] as determined by Thornberry and colleagues (Thornberry et al., 19970 are included between double lines.
(§2) The inhibitors AB07 (NP-LEHD-AOMK, caspase-9), AB08 (NP-LETD-AOMK, caspase-8), and AB09 (NP-DEVD-AOMK, caspase-3) were synthesized and kinetic inhibition constants (Kiapp) were obtained for all compounds for caspases 3, 7, 8 and 9 using the progress curve method for pseudo-first order reactions kinetics (Salvesen, 1989) (structures shown in Table I). […] Ki(app) values (also called Kass or Kobs/I) represent the speed of inhibitor binding to a target enzyme. Units are [M-1s-1]. NI indicates no inhibition at concentrations tested, ND indicates data not determined, SD indicates standard deviation.
(§3) Compound screening was completed using the progress curve method as described (Salvesen, 1989). All screening was carried out in caspase reaction buffer. The caspase-9 specific compounds AB38, 40, 41 and 42 were screened in caspase reaction buffer and in caspase buffer with 1M sodium citrate instead of sucrose as described (Pop, 2006) The concentrations of active caspases used is as follows: 5 nM active caspase-3, 5 nM active caspase-7, 10 nM active caspase-8, and 50 nM active caspase-9. To ensure full activation, caspases 3/7, 8 and 9 were preincubated at 37° C. for 5, 10, or 40 minutes respectively before kinetic measurements were made.

[2] = target: T2, Caspase-7 (Homo sapiens, UniProt P55210); test: Kinetic compound screening, progress curve method, caspase-7; details: for Ki(app) Caspase-7: Table III, Ki(app) = Kass or Kobs/I, 5 nM active caspase-7; for Caspase-7 Ki (app): Table IV
T2 sequence (P55210 1-303): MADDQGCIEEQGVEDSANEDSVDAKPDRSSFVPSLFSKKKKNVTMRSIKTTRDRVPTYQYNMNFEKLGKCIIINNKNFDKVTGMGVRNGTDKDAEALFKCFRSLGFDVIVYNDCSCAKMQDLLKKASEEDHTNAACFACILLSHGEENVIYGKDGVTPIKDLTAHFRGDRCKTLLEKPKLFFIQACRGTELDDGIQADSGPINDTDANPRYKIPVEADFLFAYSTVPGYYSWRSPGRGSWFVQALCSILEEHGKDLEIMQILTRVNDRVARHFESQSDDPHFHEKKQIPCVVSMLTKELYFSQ
Source text: as §1, §2, §3

[3] = target: Caspase-8 (Homo sapiens, UniProt Q14790); test: Kinetic compound screening, progress curve method, caspase-8; details: for Ki(app) Caspase-8: Table III, Ki(app) = Kass or Kobs/I, 10 nM active caspase-8; for Caspase-8 Ki (app): Table IV, NI = no inhibition at concentrations tested
Chain of Caspase-8 (Q14790 217-479): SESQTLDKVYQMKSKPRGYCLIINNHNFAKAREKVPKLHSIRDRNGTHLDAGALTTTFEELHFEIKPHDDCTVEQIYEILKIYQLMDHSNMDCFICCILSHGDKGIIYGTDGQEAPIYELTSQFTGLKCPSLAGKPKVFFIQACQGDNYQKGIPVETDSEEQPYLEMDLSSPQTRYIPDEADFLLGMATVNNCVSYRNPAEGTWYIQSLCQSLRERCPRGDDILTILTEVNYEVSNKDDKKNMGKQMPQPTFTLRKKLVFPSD
Source text: as §1, §2, §3

[4] = target: T3, Caspase-9 (Homo sapiens, UniProt P55211); test: Kinetic compound screening, progress curve method, caspase-9; details: NI = no inhibition at concentrations tested; for Ki(app) Caspase-9: Table III, Ki(app) = Kass or Kobs/I, 50 nM active caspase-9; for Caspase-9 Ki (app): Table IV
T3 sequence (P55211 1-416): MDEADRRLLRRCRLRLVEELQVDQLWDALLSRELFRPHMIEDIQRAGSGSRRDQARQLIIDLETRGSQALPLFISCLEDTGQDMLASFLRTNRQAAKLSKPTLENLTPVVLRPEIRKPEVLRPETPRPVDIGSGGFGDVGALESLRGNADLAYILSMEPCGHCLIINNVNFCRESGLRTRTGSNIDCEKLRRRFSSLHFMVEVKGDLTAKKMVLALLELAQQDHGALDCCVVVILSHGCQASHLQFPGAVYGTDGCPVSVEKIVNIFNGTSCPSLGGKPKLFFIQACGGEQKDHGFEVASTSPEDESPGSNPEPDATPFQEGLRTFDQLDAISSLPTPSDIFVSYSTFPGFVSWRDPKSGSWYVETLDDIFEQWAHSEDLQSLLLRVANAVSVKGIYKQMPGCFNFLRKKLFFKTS
Source text: as §1, §2, §3

[5] = tested on: recombinant caspases-3, 7, 8 and 9; test: Indirect competition with general probe KMB01 on individual recombinant caspases; details: 100 nM caspase, inhibitor 30 min, then 5 μM KMB01 30 min; range of concentrations
Procedure: (a.) Indirect competition of a panel of inhibitors with the general caspase probe KMB01. Individual caspases-3, 7, 8 and 9 (100 nM each) were incubated with the indicated inhibitors for 30 minutes followed by a 30 minute incubation with KMB01. Samples were analyzed by SDS-PAGE and residual active site labeling was visualized by biotin blotting using streptavidin-HRP. (b.) Direct labeling of caspase active sites using specific ABPs. Equal amounts of active caspaseses-3, 8, and 9 ([…]) were incubated together with increasing concentrations of each of the indicated biotinylated active site probes for 30 minutes. Active site labeling was visualized by SDS-PAGE analysis followed by biotin blotting using streptavidin HRP. (*) Indicates labeling of the full-length form of caspase-3 that is only observed using recombinant enzyme preparations.
We initially focused on recombinant caspase3, 7, 8, and 9. Each caspase was individually pre-incubated with our optimal series of selective inhibitors at a range of concentrations and residual activity was measured by addition of the general caspase probe KMB01. Overall, the competition data mirrored the kinetic data with caspase-3 and 8-specific compounds showing specific competition of the desired target.
This was shown by analysis of inhibitor and probe selectivity by indirect competition and direct labeling of recombinant caspases. Indirect competition of a panel of inhibitors with the general caspase probe KMB01 was carried out with individual caspases-3, 7, 8 and 9 (100 nM each), which were incubated with the specific inhibitors for 30 minutes followed by a 30-minute incubation with KMB01. Samples were analyzed by SDS-PAGE and residual active site labeling was visualized by biotin blotting using streptavidin-HRP. Also, the direct labeling of caspase active sites was carried out using specific ABPs. Equal amounts of active caspaseses-3, 8, and 9 ([…]) were incubated together with increasing concentrations of each of the indicated biotinylated active site probes for 30 minutes. Active site labeling was visualized by SDS-PAGE analysis followed by biotin blotting using streptavidin HRP.
For all competition and direct labeling experiments recombinant caspases were pre-incubated in caspase reaction buffer for 15 minutes at 37° C. For competition experiments, 100 nM of active site titrated caspase was incubated for 30 minutes at 37° C. with appropriate inhibitor and then residual active sites were labeled with 5 μM KMB01 for an additional 30 minutes. For direct labeling, 100 nM caspase-3, 8, and 9 were incubated together in the presence of appropriate ABPs at the indicated concentrations for 30 min at 37° C.

Row | Compound | Ki(app) Caspase-3 [1] | Caspase-3 Ki(app) [1] | Ki(app) Caspase-7 [2] | Caspase-7 Ki (app) [2] | Ki(app) Caspase-8 [3] | Caspase-8 Ki (app) [3] | Ki(app) Caspase-9 [4] | Caspase-9 Ki (app) [4] | competition for KMB01 labeling of recombinant caspases [5]
1 | CC[C@H](NC(=O)[C@@H](CCC(=O)O)NC(=O)c1ccccc1N)C(=O)N[C@@H](CC(=O)O)C(=O)COC(=O)c1c(C)cccc1C [AB28, NH2-6-E-8-D-DMBA] | 1,020,213 M^−1s^−1 | 1,020,213 M-1s-1 | 272,619 M^−1s^−1 | 272,619 M-1s-1 | 817,077 M^−1s^−1 | 817,077 M-1s-1 | 300,767 M^−1s^−1 | 300,767 M-1s-1 | blocked labeling of all four caspases targets
2 | Cc1cccc(C)c1C(=O)OCC(=O)[C@H](CC(=O)O)NC(=O)[C@H](C)NC(=O)[C@H](CC(C)C)NC(=O)C1CCCN1C(=O)Cc1ccc([N+](=O)[O-])c(O)c1 (stereo partly drawn) [AB38, Np-P-L- A-D-AOMK] | 46,108 M^−1s^−1 | 46,108 M-1s-1 | 27,814 M^−1s^−1 | 27,814 M-1s-1 | 19,676 M^−1s^−1 | 19,676 M-1s-1 | 18,004 M^−1s^−1 | 18,004 M-1s-1 | minimal degree of selectivity for caspase-9 over caspase-8
3 | CCC(C)C(NC(=O)Cc1ccc(O)c([N+](=O)[O-])c1)C(=O)N[C@@H](CC(C)C)C(=O)N[C@@H](C)C(=O)N[C@@H](CC(=O)O)C(=O)COC(=O)c1c(C)cccc1C (stereo partly drawn) [AB40, Np-I-L- A-D-AOMK] | 261,470 M^−1s^−1 | 261,470 M-1s-1 | 11,256 M^−1s^−1 | 11,256 M-1s-1 | 35,174 M^−1s^−1 | 35,174 M-1s-1 | 48,867 M^−1s^−1 | 48,867 M-1s-1 | no specific inhibition
4 | CCC(C)C(NC(=O)Cc1ccc(O)c([N+](=O)[O-])c1)C(=O)N[C@@H](CC(C)C)C(=O)N1CSCC1C(=O)N[C@@H](CC(=O)O)C(=O)COC(=O)c1c(C)cccc1C (stereo partly drawn) [AB41, Np-I-L-38-D-AOMK] | 1,582,350 M^−1s^−1 | 1,582,350 M-1s-1 | 69,317 M^−1s^−1 | 69,317 M-1s-1 | 49,815 M^−1s^−1 | 49,815 M-1s-1 | 35,779 M^−1s^−1 | 35,779 M-1s-1 | no specific inhibition
5 | CCC(C)C(NC(=O)Cc1ccc(O)c([N+](=O)[O-])c1)C(=O)NC(Cc1ccccc1)C(=O)N1CCCC1C(=O)N[C@@H](CC(=O)O)C(=O)COC(=O)c1c(C)cccc1C (stereo partly drawn) [AB42, NP-I-F- P-D-AOMK] | 892,045 M^−1s^−1 | 892,045 M-1s-1 | 42,594 M^−1s^−1 | 42,594 M-1s-1 | 22,544 M^−1s^−1 | 22,544 M-1s-1 | 44,709 M^−1s^−1 | 44,709 M-1s-1 | minimal degree of selectivity for caspase-9 over caspase-8

From patent US20100068150A1, “Selective Caspase Inhibitors” (The Board of Trustees of the Leland Stanford Junior …, priority 2006, published 2010)
